Measurements: PubChem BioAssay (NCI)
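Tested at 5 concentrations; 48 h exposure; 96-well plates; endpoints linearly interpolated, else capped at highest concentration. GI50 marks 50% less growth. TGI denotes the concentration required for complete inhibition of growth.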

What was measured:
Assay in all cases: NCI anticancer screen, dose series, 48 h
786-0 renal = system: 786-0 renal
A498 renal = system: A498 renal
A549 NSCLC = system: A549 NSCLC
ACHN renal = system: ACHN renal
BT-549 breast = system: BT-549 breast
CAKI-1 renal = system: CAKI-1 renal
CCRF-CEM leukemia = system: CCRF-CEM leukemia
COLO 205 colon = system: COLO 205 colon
DU-145 prostate = system: DU-145 prostate
EKVX NSCLC = system: EKVX NSCLC
HCC-2998 colon = system: HCC-2998 colon
HCT-116 colon = system: HCT-116 colon
HCT-15 colon = system: HCT-15 colon
HL-60(TB) leukemia = system: HL-60(TB) leukemia
HOP-62 NSCLC = system: HOP-62 NSCLC
HOP-92 NSCLC = system: HOP-92 NSCLC
HS 578T breast = system: HS 578T breast
HT29 colon = system: HT29 colon
IGROV1 ovarian = system: IGROV1 ovarian
K-562 leukemia = system: K-562 leukemia
KM12 colon = system: KM12 colon
LOX IMVI melanoma = system: LOX IMVI melanoma
M14 melanoma = system: M14 melanoma
MALME-3M melanoma = system: MALME-3M melanoma
MCF7 breast = system: MCF7 breast
MDA-MB-231 breast = system: MDA-MB-231 breast
MDA-MB-435 = system: MDA-MB-435
MOLT-4 leukemia = system: MOLT-4 leukemia
NCI-H226 lung = system: NCI-H226 lung
NCI-H23 lung = system: NCI-H23 lung
NCI-H460 lung = system: NCI-H460 lung
NCI-H522 lung = system: NCI-H522 lung
NCI/ADR-RES ovarian = system: NCI/ADR-RES ovarian
OVCAR-3 ovarian = system: OVCAR-3 ovarian
OVCAR-4 ovarian = system: OVCAR-4 ovarian
OVCAR-5 ovarian = system: OVCAR-5 ovarian
OVCAR-8 ovarian = system: OVCAR-8 ovarian
PC-3 prostate = system: PC-3 prostate
RPMI-8226 leukemia = system: RPMI-8226 leukemia
RXF 393 renal = system: RXF 393 renal
SF-268 CNS = system: SF-268 CNS
SF-295 CNS = system: SF-295 CNS
SF-539 CNS = system: SF-539 CNS
SK-MEL-2 melanoma = system: SK-MEL-2 melanoma
SK-MEL-28 melanoma = system: SK-MEL-28 melanoma
SK-MEL-5 melanoma = system: SK-MEL-5 melanoma
SK-OV-3 ovarian = system: SK-OV-3 ovarian
SN12C renal = system: SN12C renal
SNB-19 CNS = system: SNB-19 CNS
SR leukemia = system: SR leukemia
SW-620 colon = system: SW-620 colon
T-47D breast = system: T-47D breast
TK-10 renal = system: TK-10 renal
U251 CNS = system: U251 CNS
UACC-257 melanoma = system: UACC-257 melanoma
UACC-62 melanoma = system: UACC-62 melanoma
UO-31 renal = system: UO-31 renal

`C/C(Cc1ccc(Cl)cc1)=C(\c1ccc(OCCN2CCCCCC2)cc1)c1ccc(OC(=O)c2ccccc2)cc1` showed a GI50 (786-0 renal) of 2.99 µM, a TGI (786-0 renal) of 9.44 µM and a GI50 (A498 renal) of 5.37 µM. It also gave a TGI (A498 renal) of 11.4 µM, a GI50 (A549 NSCLC) of 4.27 µM and a TGI (A549 NSCLC) of 12.6 µM. It also gave a GI50 (ACHN renal) of 5.77 µM, a TGI (ACHN renal) of 12.8 µM and a GI50 (BT-549 breast) of 6.27 µM. The TGI (BT-549 breast) was 12.7 µM, the GI50 (CAKI-1 renal) was 3.08 µM and the TGI (CAKI-1 renal) was 10.6 µM. It also gave a GI50 (CCRF-CEM leukemia) of 1.12 µM, a TGI (CCRF-CEM leukemia) of 3.79 µM and a GI50 (COLO 205 colon) of 1.71 µM. For the same compound, the TGI (COLO 205 colon) was 7.34 µM, the GI50 (DU-145 prostate) was 4.26 µM and the TGI (DU-145 prostate) was 11.1 µM. It also gave a GI50 (EKVX NSCLC) of 4.32 µM, a TGI (EKVX NSCLC) of 16.6 µM and a GI50 (HCC-2998 colon) of 1.38 µM. For the same compound, the TGI (HCC-2998 colon) was 3.53 µM, the GI50 (HCT-116 colon) was 1.34 µM and the TGI (HCT-116 colon) was 4.54 µM. It also gave a GI50 (HCT-15 colon) of 1.73 µM, a TGI (HCT-15 colon) of 7.53 µM and a GI50 (HL-60(TB) leukemia) of 1.62 µM. The TGI (HL-60(TB) leukemia) was 9.03 µM, the GI50 (HOP-62 NSCLC) was 5.98 µM and the TGI (HOP-62 NSCLC) was 12.3 µM. For the same compound, the GI50 (HOP-92 NSCLC) was 1.1 µM, the TGI (HOP-92 NSCLC) was 4.43 µM and the GI50 (HS 578T breast) was 4.29 µM. The TGI (HS 578T breast) was 14.4 µM, the GI50 (HT29 colon) was 1.64 µM and the TGI (HT29 colon) was 5.75 µM. For the same compound, the GI50 (IGROV1 ovarian) was 2.72 µM, the TGI (IGROV1 ovarian) was 10.3 µM and the GI50 (K-562 leukemia) was 1.55 µM. The TGI (K-562 leukemia) was 5.88 µM, the GI50 (KM12 colon) was 2.36 µM and the TGI (KM12 colon) was 9.23 µM. It also gave a GI50 (LOX IMVI melanoma) of 1.25 µM, a TGI (LOX IMVI melanoma) of 3.22 µM and a GI50 (M14 melanoma) of 1.01 µM. For the same compound, the TGI (M14 melanoma) was 2.36 µM, the GI50 (MALME-3M melanoma) was 1.76 µM and the TGI (MALME-3M melanoma) was 6.56 µM. It also gave a GI50 (MCF7 breast) of 0.358 µM, a TGI (MCF7 breast) of 6.92 µM and a GI50 (MDA-MB-231 breast) of 2.15 µM. The TGI (MDA-MB-231 breast) was 8.22 µM, the GI50 (MDA-MB-435) was 2.65 µM and the TGI (MDA-MB-435) was 9.27 µM. For the same compound, the GI50 (MOLT-4 leukemia) was 1.29 µM, the TGI (MOLT-4 leukemia) was 5.95 µM and the GI50 (NCI-H226 lung) was 8.45 µM. For the same compound, the TGI (NCI-H226 lung) was 17.5 µM, the GI50 (NCI-H23 lung) was 4.69 µM and the TGI (NCI-H23 lung) was 12.6 µM. For the same compound, the GI50 (NCI-H460 lung) was 1.61 µM, the TGI (NCI-H460 lung) was 5.23 µM and the GI50 (NCI-H522 lung) was 5.78 µM. It also gave a TGI (NCI-H522 lung) of 12.9 µM, a GI50 (NCI/ADR-RES ovarian) of 3.24 µM and a TGI (NCI/ADR-RES ovarian) of 11.3 µM. It also gave a GI50 (OVCAR-3 ovarian) of 3.78 µM, a TGI (OVCAR-3 ovarian) of 10.2 µM and a GI50 (OVCAR-4 ovarian) of 1.88 µM. It also gave a TGI (OVCAR-4 ovarian) of 8.51 µM, a GI50 (OVCAR-5 ovarian) of 4.64 µM and a TGI (OVCAR-5 ovarian) of 11.7 µM. For the same compound, the GI50 (OVCAR-8 ovarian) was 2.85 µM, the TGI (OVCAR-8 ovarian) was 9.35 µM and the GI50 (PC-3 prostate) was 1.7 µM. It also gave a TGI (PC-3 prostate) of 7.29 µM, a GI50 (RPMI-8226 leukemia) of 1.16 µM and a TGI (RPMI-8226 leukemia) of 3.28 µM. The GI50 (RXF 393 renal) was 2.49 µM, the TGI (RXF 393 renal) was 9.15 µM and the GI50 (SF-268 CNS) was 3.03 µM. For the same compound, the TGI (SF-268 CNS) was 10.7 µM, the GI50 (SF-295 CNS) was 2.27 µM and the TGI (SF-295 CNS) was 8.48 µM. The GI50 (SF-539 CNS) was 5.18 µM, the TGI (SF-539 CNS) was 11.4 µM and the GI50 (SK-MEL-2 melanoma) was 6.92 µM. For the same compound, the TGI (SK-MEL-2 melanoma) was 14 µM, the GI50 (SK-MEL-28 melanoma) was 1.15 µM and the TGI (SK-MEL-28 melanoma) was 2.94 µM. For the same compound, the GI50 (SK-MEL-5 melanoma) was 2.3 µM, the TGI (SK-MEL-5 melanoma) was 8.48 µM and the GI50 (SK-OV-3 ovarian) was 5.8 µM. For the same compound, the TGI (SK-OV-3 ovarian) was 13.2 µM, the GI50 (SN12C renal) was 3.19 µM and the TGI (SN12C renal) was 10.3 µM. The GI50 (SNB-19 CNS) was 5.29 µM, the TGI (SNB-19 CNS) was 14.6 µM and the GI50 (SR leukemia) was 1.25 µM. The TGI (SR leukemia) was 3.8 µM, the GI50 (SW-620 colon) was 2.52 µM and the TGI (SW-620 colon) was 9.7 µM. For the same compound, the GI50 (T-47D breast) was 1.43 µM, the TGI (T-47D breast) was 9.73 µM and the GI50 (TK-10 renal) was 6.03 µM. The TGI (TK-10 renal) was 13.3 µM, the GI50 (U251 CNS) was 2.61 µM and the TGI (U251 CNS) was 8.96 µM. It also gave a GI50 (UACC-257 melanoma) of 6.18 µM, a TGI (UACC-257 melanoma) of 13 µM and a GI50 (UACC-62 melanoma) of 1.3 µM. It also gave a TGI (UACC-62 melanoma) of 3.9 µM, a GI50 (UO-31 renal) of 1.39 µM and a TGI (UO-31 renal) of 7.3 µM.
